Measured values as given in patent US20190343908A1, “Therapeutic Combination for the Treatment of Cancer” (Nerium Biotechnology Inc., priority 2011, published 2019).

Key:
[1] = system: COLO699N lung cancer cell line; experiment: Crystal Violet viability assay, COLO699N; assay type: cell-based, human; parameters: key to CVE Average: absorbance at 570 nm (crystal violet), background wavelength subtracted; conditions: for Average CVE 24 h / Average CVE 48 h / Average CVE 72 h: COLO699N Run 1; for ABSORBANCE: COLO699N, 0.1 μg/mL cisplatin
Description: (§1) Three different viability assays were chosen to complement each other and yielded results dependent on concentration and cell line: the Methyl Tetrazolium dye assay, the Sulforhodamine B fluorescent dye assay, and the Crystal Violet dye assay.
(§2) The Sulforhodamine B and Crystal Violet assays provide information about protein and were used to complement the Methyl-Tetrazolium dye assay. […] It is used for the quantification of cellular proteins of cultured cells. The assay using Crystal Violet, a dye that binds electrostatically to proteins and stains DNA, provides a reliable, simple assay for measuring viability of cells.
(§3) The Methyl Tetrazolium, Sulforhodamine B, and Crystal Violet assays were used to assess cell viabilities. The incubation times were 24 hours, 48 hours, and 72 hours. The Nerium oleander extract Anvirzel™ (a hot water extract of oleander obtained from Salud Integral, Honduras) was tested in concentrations ranging from 0.01 ng/mL to 10 ng/mL.
(§4) Cells were detached by trypsinization (Trypsin-0.25% EDTA, Invitrogen, 25200-072) during the logarithmic phase of culture growth and plated in 96-well plates (18.000 cells/well) (Corning, Costar 359) in a final volume of 200 μl of medium per well. […] The absorbance was measured after 24 hours, 48 hours, and 72 hours of incubation.
(§5) For the Crystal Violet assay, the medium was removed from the 96-well plates, the plates rinsed with PBS (Sigma, P3813) and then the cells were […] by the addition of 10% formalin (MERCK, 1.04003.2500) for 20 minutes at RT. Formalin was removed and 0.25% aqueous crystal violet (Sigma, HT901), dissolved in water, was added for 10 minutes at RT. Unbound Crystal Violet was rinsed by washing with water and finally 33% acetic acid was added to dissolve the dye.
(§6) The optical density of each plate was measured on a μQuant spectrophotometer and the data were analyzed with Gen5 software (μQuant Biomolecular Spectrophotometer MQX200 and Gen5™ Microplate Data Collection & Analysis software, BioTek® Instruments. Inc, April 2008). Absorbance was measured at 570 nm for all assays and a second wavelength was measured in order to subtract noise. For the Methyl-Tetrazolium assay this second wavelength was 630 nm and for the Sulforhodamine B and Crystal Violet assays it was 690 nm.

[2] = system: A375 melanoma cancer cell line; experiment: Crystal Violet viability assay, A375; assay type: cell-based, human; conditions: for ABSORBANCE: 0.1 μg/mL cisplatin; for Average absorbance, CVE 24 h / Average absorbance, CVE 48 h / Average absorbance, CVE 72 h: A375 Run 1
Description: as §1, §2, §3, §4, §5, §6

`N.N.[Cl][Pt][Cl]` [cisplatin] was tested, and the “Average CVE 24 h” value ([1]; 0.1 μg/ml CDDP) was 0.303, the “Average CVE 48 h” value ([1]; 0.1 μg/ml CDDP, 48 h) was 0.393 and the “Average CVE 72 h” value ([1]; 0.1 μg/ml CDDP, 72 h) was 0.418. For the same compound, the “Average CVE 24 h” value ([1]; 1 μg/ml CDDP) was 0.222, the “Average CVE 48 h” value ([1]; 1 μg/ml CDDP, 48 h) was 0.136 and the “Average CVE 72 h” value ([1]; 1 μg/ml CDDP, 72 h) was 0.313. For the same compound, the “Average CVE 24 h” value ([1]; 10 μg/ml CDDP) was 0.313, the “Average CVE 48 h” value ([1]; 10 μg/ml CDDP, 48 h) was 0.47 and the “Average CVE 72 h” value ([1]; 10 μg/ml CDDP, 72 h) was 0.256. For the same compound, the “Average CVE 24 h” value ([1]; 100 μg/ml CDDP) was 0.223, the “Average CVE 48 h” value ([1]; 100 μg/ml CDDP, 48 h) was 0.189 and the “Average CVE 72 h” value ([1]; 100 μg/ml CDDP, 72 h) was 0.172. For the same compound, the ABSORBANCE ([1]; 48 h) was 0.801, the ABSORBANCE ([1]; 72 h) was 1 and the “CVE Average” value ([1]; Run 2, 24 h, 0.1 μg/ml CDDP) was 0.551. The “CVE Average” value ([1]; Run 2, 24 h, 1 μg/ml CDDP) was 0.232, the “CVE Average” value ([1]; Run 2, 24 h, 10 μg/ml CDDP) was 0.504 and the “CVE Average” value ([1]; Run 2, 24 h, 100 μg/ml CDDP) was 0.266. The “CVE Average” value ([1]; Run 2, 48 h, 0.1 μg/ml CDDP) was 0.801, the “CVE Average” value ([1]; Run 2, 48 h, 1 μg/ml CDDP) was 0.311 and the “CVE Average” value ([1]; Run 2, 48 h, 10 μg/ml CDDP) was 0.205. For the same compound, the “CVE Average” value ([1]; Run 2, 48 h, 100 μg/ml CDDP) was 0.287, the “CVE Average” value ([1]; Run 2, 72 h, 0.1 μg/ml CDDP) was 1 and the “CVE Average” value ([1]; Run 2, 72 h, 1 μg/ml CDDP) was 0.337. For the same compound, the “CVE Average” value ([1]; Run 2, 72 h, 10 μg/ml CDDP) was 0.127, the “CVE Average” value ([1]; Run 2, 72 h, 100 μg/ml CDDP) was 0.268 and the “CVE Average” value ([1]; Run 3, 24 h, 0.1 μg/ml CDDP) was 0.675. For the same compound, the “CVE Average” value ([1]; Run 3, 24 h, 1 μg/ml CDDP) was 0.194, the “CVE Average” value ([1]; Run 3, 24 h, 10 μg/ml CDDP) was 0.398 and the “CVE Average” value ([1]; Run 3, 24 h, 100 μg/ml CDDP) was 0.224. For the same compound, the “CVE Average” value ([1]; Run 3, 48 h, 0.1 μg/ml CDDP) was 0.624, the “CVE Average” value ([1]; Run 3, 48 h, 1 μg/ml CDDP) was 0.815 and the “CVE Average” value ([1]; Run 3, 48 h, 10 μg/ml CDDP) was 0.199. The “CVE Average” value ([1]; Run 3, 48 h, 100 μg/ml CDDP) was 0.185, the “CVE Average” value ([1]; Run 3, 72 h, 0.1 μg/ml CDDP) was 0.759 and the “CVE Average” value ([1]; Run 3, 72 h, 1 μg/ml CDDP) was 0.295. For the same compound, the “CVE Average” value ([1]; Run 3, 72 h, 10 μg/ml CDDP) was 0.155, the “CVE Average” value ([1]; Run 3, 72 h, 100 μg/ml CDDP) was 0.393 and the ABSORBANCE ([2]; A375, 48 h) was 1.304. For the same compound, the ABSORBANCE ([2]; A375, 72 h) was 0.663, the “Average absorbance, CVE 24 h” value ([2]; 0.1 μg/ml CDDP) was 0.607 and the “Average absorbance, CVE 48 h” value ([2]; 0.1 μg/ml CDDP) was 1.304. The “Average absorbance, CVE 72 h” value ([2]; 0.1 μg/ml CDDP) was 0.663, the “Average absorbance, CVE 24 h” value ([2]; 1 μg/ml CDDP) was 0.277 and the “Average absorbance, CVE 48 h” value ([2]; 1 μg/ml CDDP) was 0.396. The “Average absorbance, CVE 72 h” value ([2]; 1 μg/ml CDDP) was 0.178, the “Average absorbance, CVE 24 h” value ([2]; 10 μg/ml CDDP) was 0.32 and the “Average absorbance, CVE 48 h” value ([2]; 10 μg/ml CDDP) was 0.405. The “Average absorbance, CVE 72 h” value ([2]; 10 μg/ml CDDP) was 0.282, the “Average absorbance, CVE 24 h” value ([2]; 100 μg/ml CDDP) was 0.329 and the “Average absorbance, CVE 48 h” value ([2]; 100 μg/ml CDDP) was 0.288. The “Average absorbance, CVE 72 h” value ([2]; 100 μg/ml CDDP) was 0.311, the “Average absorbance CVE” value ([2]; A375 Run 2, 24 h, 0.1 μg/ml CDDP) was 0.603 and the “Average absorbance CVE” value ([2]; A375 Run 2, 24 h, 1 μg/ml CDDP) was 0.197. The “Average absorbance CVE” value ([2]; A375 Run 2, 24 h, 10 μg/ml CDDP) was 0.246, the “Average absorbance CVE” value ([2]; A375 Run 2, 24 h, 100 μg/ml CDDP) was 0.241 and the “Average absorbance CVE” value ([2]; A375 Run 2, 48 h, 0.1 μg/ml CDDP) was 1.204. For the same compound, the “Average absorbance CVE” value ([2]; A375 Run 2, 48 h, 1 μg/ml CDDP) was 0.605, the “Average absorbance CVE” value ([2]; A375 Run 2, 48 h, 10 μg/ml CDDP) was 0.514 and the “Average absorbance CVE” value ([2]; A375 Run 2, 48 h, 100 μg/ml CDDP) was 0.238. The “Average absorbance CVE” value ([2]; A375 Run 2, 72 h, 0.1 μg/ml CDDP) was 1.312, the “Average absorbance CVE” value ([2]; A375 Run 2, 72 h, 1 μg/ml CDDP) was 1.001 and the “Average absorbance CVE” value ([2]; A375 Run 2, 72 h, 10 μg/ml CDDP) was 0.729. The “Average absorbance CVE” value ([2]; A375 Run 2, 72 h, 100 μg/ml CDDP) was 0.293, the “Average absorbance CVE” value ([2]; A375 Run 3, 24 h, 0.1 μg/ml CDDP) was 0.856 and the “Average absorbance CVE” value ([2]; A375 Run 3, 24 h, 1 μg/ml CDDP) was 0.655. The “Average absorbance CVE” value ([2]; A375 Run 3, 24 h, 10 μg/ml CDDP) was 0.529, the “Average absorbance CVE” value ([2]; A375 Run 3, 24 h, 100 μg/ml CDDP) was 0.224 and the “Average absorbance CVE” value ([2]; A375 Run 3, 48 h, 0.1 μg/ml CDDP) was 0.92. For the same compound, the “Average absorbance CVE” value ([2]; A375 Run 3, 48 h, 1 μg/ml CDDP) was 0.375, the “Average absorbance CVE” value ([2]; A375 Run 3, 48 h, 10 μg/ml CDDP) was 0.309 and the “Average absorbance CVE” value ([2]; A375 Run 3, 48 h, 100 μg/ml CDDP) was 0.252. The “Average absorbance CVE” value ([2]; A375 Run 3, 72 h, 0.1 μg/ml CDDP) was 0.961, the “Average absorbance CVE” value ([2]; A375 Run 3, 72 h, 1 μg/ml CDDP) was 0.388 and the “Average absorbance CVE” value ([2]; A375 Run 3, 72 h, 10 μg/ml CDDP) was 0.344. For the same compound, the “Average absorbance CVE” value ([2]; A375 Run 3, 72 h, 100 μg/ml CDDP) was 0.24.
